Measured values published in PubChem BioAssay (NCI).
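96-well plates; 48 h exposure; 5 concentrations. Endpoints by linear interpolation between flanking doses. Not reached: highest tested concentration assigned. At the GI50, growth is halved. TGI: concentration producing complete growth inhibition.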

How the values were obtained:
Experiment in all cases: inhibition of tumour cell growth, NCI panel, 48 h
A498 renal = tested on: A498 renal
SR leukemia = tested on: SR leukemia
LOX IMVI melanoma = tested on: LOX IMVI melanoma
NCI-H522 lung = tested on: NCI-H522 lung
SF-295 CNS = tested on: SF-295 CNS
HCC-2998 colon = tested on: HCC-2998 colon
786-0 renal = tested on: 786-0 renal
NCI-H226 lung = tested on: NCI-H226 lung
PC-3 prostate = tested on: PC-3 prostate
DU-145 prostate = tested on: DU-145 prostate

Row | Structure (SMILES) | TGI (A498 renal) [µM] | TGI (SR leukemia) [µM] | TGI (LOX IMVI melanoma) [µM] | TGI (NCI-H522 lung) [µM] | TGI (SF-295 CNS) [µM] | TGI (HCC-2998 colon) [µM] | TGI (786-0 renal) [µM] | TGI (NCI-H226 lung) [µM] | GI50 (A498 renal) [µM] | GI50 (PC-3 prostate) [µM] | TGI (PC-3 prostate) [µM] | GI50 (LOX IMVI melanoma) [µM] | GI50 (NCI-H522 lung) [µM] | GI50 (SF-295 CNS) [µM] | GI50 (HCC-2998 colon) [µM] | GI50 (DU-145 prostate) [µM] | TGI (DU-145 prostate) [µM] | GI50 (786-0 renal) [µM] | GI50 (NCI-H226 lung) [µM] | GI50 (SR leukemia) [µM]
1 | CC1=C(C(=O)Nc2ccccc2C)C(c2ccc(C3C(C(=O)Nc4ccccc4C)=CNC=C3C(=O)Nc3ccccc3C)cc2)C(C(=O)Nc2ccccc2C)=C(C)N1 | 41.7 | 16.7 | 21.7 | 18.9 | 37.7 | 31.8 | 29.3 | 33.5 |  |  |  |  |  |  |  |  |  |  |  | 
2 | CC1CCC23COC(=O)C2C(O)CCC3C1(C)CC(O)c1ccoc1 (stereo not drawn) | > 100 |  | > 100 | > 100 | > 100 | > 100 | > 100 | > 100 |  |  |  |  |  |  |  |  |  |  |  | 
3 | O=C1C(N2C(=O)c3ccccc3C2=O)CN1C(COCc1ccccc1)c1ccc(OCc2ccccc2)cc1 (stereo not drawn) | > 100 | > 100 | > 100 | > 100 | > 100 | > 100 | > 100 | > 100 |  |  |  |  |  |  |  |  |  |  |  | 
4 | COc1ccc(Nc2ncccc2C(=O)NCc2cn(Cc3cccc(Oc4ccccc4)c3)nn2)cc1 | 8.71 |  | > 100 | 5.44 | > 100 | 6.85 | > 100 | > 100 | 2.35 | 3.86 | > 100 | 3.6 | 2.13 | 2.94 | 2.53 | 3.76 | > 100 | 5.59 | 3.92 | 
5 | CN(C)CCC1(C2=CCCC2)CC/C(=C\c2ccccc2)C1=O (stereo not drawn) | 29.1 | > 100 | 31.3 | 27.4 | 33.6 | 29.2 | 27.8 | 31.1 |  |  |  |  |  |  |  |  |  |  |  | 
6 | O=c1[nH]c(/C=C(\O)c2ccncc2)nc2ccccc12 | > 100 | > 100 |  | > 100 | > 100 | > 100 | > 100 | > 100 |  |  |  |  |  |  |  |  |  |  |  | 
7 | COC(=O)C(Cc1nc2ccccc2[nH]c1=O)C(=O)C(=O)Nc1ccc(OC)cc1[N+](=O)[O-] (stereo not drawn) |  | > 100 | > 100 | > 100 | > 100 | > 100 | > 100 | > 100 |  |  |  |  |  |  |  |  |  |  |  | 
8 | O=c1/c(=C/c2ccc3c(c2)OCO3)sc2nnc(-c3ccco3)n12 | > 100 |  | > 100 | > 100 | > 100 | > 100 | > 100 | > 100 |  |  |  |  |  |  |  |  |  |  |  | 
9 | C=C1C(=O)OC2/C=C(\C)C3OC3/C=C(/C(=O)OC)C(OC(C)=O)C(OC(=O)C(C)(O)C(C)OC(C)=O)C12 (stereo not drawn) | 11.5 |  | 3.61 | 0.871 | 21.5 | 14.4 | 8.27 | 15.7 |  |  | 14.8 |  |  |  |  |  |  |  |  | 
10 | CN(C)/C=N/c1nc2ncn(CCOC(=O)c3ccccc3)c2c(=O)[nH]1 | > 100 | > 100 | > 100 | > 100 | > 100 |  | > 100 | > 100 |  |  |  |  |  |  |  |  |  |  |  | 
11 | CCSc1nc2n(c(=S)n1)CCN2C | 47.5 | 29.9 | 34.8 | 19.3 | 41.2 | 30.3 | 52 | 42.8 |  |  |  |  |  |  |  |  |  |  |  | 
12 | CC(Oc1ccc2cc(C(=O)c3ccccc3)c(=O)oc2c1)C(=O)O (stereo not drawn) | > 100 | > 100 | > 100 | > 100 | > 100 | > 100 | > 100 | > 100 |  |  |  |  |  |  |  |  |  |  |  | 
13 | Cc1cc2c(cc1C)[n+](=O)c(C(=O)/C=C/c1ccccc1Cl)c(C)n2[O-] | 96.7 |  | > 100 | 26.7 | > 100 | 34.2 | 30.3 | > 100 |  |  |  |  |  |  |  |  |  |  |  | 
14 | COc1ccc(C(=O)O)c(Cc2ccc3ccccc3c2)c1 | > 100 | > 100 | > 100 | > 100 | > 100 |  | > 100 | > 100 |  |  |  |  |  |  |  |  |  |  |  | 
15 | Oc1cc2ccccc2cc1-c1n[nH]c(=S)n1-c1ccc(Cl)cc1 |  | > 100 | 50.2 | 35.2 | > 100 |  | 49.8 | 85 |  | 15.7 | > 100 | 11.2 | 5.65 | 13.1 |  | 31.2 | > 100 | 16.1 | 23.7 | 3.08
16 | CC([O-])C(=O)[O-].NCC1CCC1CN.[Pt+4] (stereo not drawn) |  |  | > 10 | > 10 | > 10 | > 10 | > 10 | > 10 |  | > 10 | > 10 | > 10 | > 10 | > 10 | > 10 | > 10 | > 10 | > 10 | > 10 | 
17 | O=C1C(Cl)=C(Nc2cccc(O)c2)C(=O)N1c1cccc(Cl)c1Cl |  | 10.3 | 28.5 | 27 | 25.2 |  | 63.2 |  |  | 6.92 | 28.6 | 12.5 | 12.4 | 3.28 |  | 22.7 | 48 | 18.2 |  | 0.57
18 | O=C([O-])c1ccccc1Nc1ccccc1[O-].[Ni+3].[OH3+].[OH3+].[OH3+] | > 100 | > 100 | > 100 | > 100 | > 100 | > 100 | > 100 | > 100 | > 100 |  |  | > 100 | > 100 | > 100 | > 100 |  |  | > 100 | 88.4 | > 100
19 | C[C@]12CC[C@H]3[C@@H](C[C@@H]4N=C(c5ccc(O)cc5)S[C@@]45C[C@H](O)CC[C@]35C)[C@@H]1CC[C@@H]2O | 21.3 | 33.8 | 14.6 | > 100 | 2.03 | > 100 | 2.39 | > 100 | 3.51 |  |  | 2.67 | 22.6 | 0.413 | 31.9 | 9.54 | > 100 | 0.423 | 27.4 | 1.37
20 | CC/C=C\C/C=C\C[C@H]1C/C=C2/C(=O)C=C[C@H]2C/C=C\CCC(=O)O1 | 13.3 |  | 4.78 | 5.32 | 9.29 | 5.37 | 7.45 | 8.54 | 4.07 | 3.39 | 12.5 | 2.34 | 1.83 | 3.01 | 2.77 | 4.33 | > 14.3 | 3.13 | 2.78 | 
